These results are taken from US9999623B2, “Use of substituted 2,3-dihydroimidazo[1,2-c]quinazolines for treating lymphomas” (BAYER PHARMA AKTIENGESELLSCHAFT, priority 2013, dated 2018).

The subject of series [1] is DLBCL cell lines. The experiment in a line: 72-h CellTiter-Glo anti-proliferative assay. As to conditions: for anti-proliferative activity profile across DLBCL cell lines: panel of 8 DLBCL cell lines; for IC50: Homo sapiens. In kind it is cell-based, human. Here is the method:
Briefly, cells were plated at 250-2000 cells/well of 384-well plates (based on cell lines) in 20 μL of growth medium. For each cell line assayed, cells were plated into a separate plate for determination of luminescence at the t=0 hours and t=72 hour time points. […] Dose plates for t=72 hour time points were treated with compounds diluted into growth medium in a final volume of 30 μL. Cells were then incubated for 72 hours at 37° C. Luminescence values for the t=72 hour samples were determined by adding 30 μL of Promega CellTiter-Glo solution, placing the cells on a shaker for 10 minutes at room temperature, and then reading the luminescence using a Victor luminometer. For data processing, t=0 values are subtracted from those determined for the t=72 hour time points, for both the treated and untreated samples. Percent differences in luminescence between drug treated and controls are used to determine percent inhibition of growth.

Series [2] has as its system signaling pathways in OCI-Ly3 and HBL-1 cells. Kind of series: Western blot modulation of intracellular signaling pathways. In kind it is cell-based, human. As to conditions: 24 h post treatment. Here is the method:
Modulation of intracellular pathways were assessed by Western blots at 24 h post treatment with indicated compounds either as single agent or in combination. Antibodies used in this study are AKT (#4685, Cell Signaling), p-AKT (04060, Cell Signaling), ERK (#4695, Cell Signaling), p-ERK (#4376, Cell Signaling), BTK (#3533, Cell Signaling), p-BTK (05082, Cell Signaling), IκBα (#4812, Cell Signaling), p-IκBα (#AF4809, R&D), p-IKKα/β (02078, Cell Signaling), IKKβ (02370, Cell Signaling).

Series [3] relates to DLBCL. The conditions noted are these: patients with PD/patients; cited from earlier work.
Series [4] deals with follicular NHL. The experiment in a line: Initial clinical efficacy in NHL patients (phase I dose-escalation), follicular NHL. In kind it is in vivo, human. As to conditions: patients with PR/patients; PR at end of cycle 2 at 0.8 mg/kg, one case end of cycle 4 at 0.6 mg/kg. Here is the method: A phase I dose-escalation study (Patnaik et al, ASH 2012) established the maximum tolerated dose of COMPOUND OF FORMULA I (0.8 mg/kg) and reported promising activity (6/6 PR) in follicular lymphoma. In the present study we further investigated the activity and safety of COMPOUND OF FORMULA I in patients with indolent or aggressive lymphoma subtypes that have progressed after standard therapy.

Series [5] relates to DLBCL. Kind of series: Initial clinical efficacy in NHL patients (phase I dose-escalation), DLBCL. In kind it is in vivo, human. As to conditions: DLBCL patient with SD.
The nature of series [6]: Half-life in mice. The conditions noted are these: mouse, in vivo, iv.
The subject of series [7] is TMD-8 tumor cells. As to conditions: 20 mg/kg once daily po; day 29. Here is the method: Untreated female 5-6 week old CB17.Scid mice are inoculated with 10×10^6 TMD-8 tumor cells (suspended in 50% Matrigel and 50% Medium) subcutaneously into the flank. Animals are randomized to treatment groups when tumors reach a tumor area of 30-35 mm^2. Treatment is conducted as described in FIG. 5 legend. Tumor area and animal body are recorded three times per week.
Tumor growth was monitored by determination of the tumor area using caliper measurement 3 times weekly. QD, once daily; SD, standard deviation of the mean; TGI, relative tumor growth inhibition vs control (%, tumor area at the end of the study on day 29)

Series [8] relates to indolent or aggressive lymphoma. The experiment in a line: Phase II study, single agent, response by lymphoma subtype. In kind it is in vivo, human. As to conditions: for Best response CR/CRu, number of patients / Best response PD, number of patients / Best response PR, number of patients / Best response SD, number of patients: staged patients; for complete RR / overall response rate (RR): interim analysis. How it is done:
In this Phase II study, patients with histologically confirmed indolent or aggressive lymphoma relapsed or refractory to ≥2 prior lines of treatment were eligible. Patients received COMPOUND OF FORMULA I at a dose of 0.8 mg/kg as a 1 hour infusion on days 1, 8 and 15 of a 28-day cycle. Patients continued on therapy until disease progression or unacceptable toxicity. Responses were assessed every two cycles according to the response criteria for lymphoma (Cheson et al, JCO 17:1244, 1999) or the guidelines for diagnosis and treatment of chronic lymphocytic leukemia (CLL; Hallek et al., Blood 111:5446-56, 2008).
As of May 31, 2013, a total of 61 lymphoma patients (27 indolent and 34 aggressive) were enrolled and 56 started study treatment. Patients were similarly distributed among indolent and aggressive cohorts with respect to gender (52% female), median age (68 yr, range 22-90) and ethnicity (76% Caucasian) and were heavily pretreated (median number of prior therapies: 3; prior Rituximab: 84%; prior ASCT: 20%). Other characteristics included advanced stage III-IV in 85% and B symptoms in 17%. The following entities were represented: follicular (FL; n=13); CLL (n=11); marginal zone (MZL; n=3; none re-staged); diffuse large B-cell (DLBCL; n=17); mantle cell (MCL; n=7); transformed (n=5); and peripheral T-cell (PTCL; n=4). At the time of analysis patients had received between 1 and 5 cycles of treatment. Objective responses were seen across histologic subtypes (Table 1). At the time of this interim analysis, the overall response rate (RR) and complete RR were 44% and 22% in FL, 83% and 17% in MCL, and 50% and 0% in PTCL, respectively.

Series [9] is described as follows: Phase II study, single agent, safety (adverse events). The class given is in vivo, human. How it is done:
Patients received COMPOUND OF FORMULA I at a dose of 0.8 mg/kg as a 1 hour infusion on days 1, 8 and 15 of a 28-day cycle. Patients continued on therapy until disease progression or unacceptable toxicity.

In series [10] the test system is follicular NHL. The conditions noted are these: phase I dose-escalation study (Patnaik et al, ASH 2012); cited from earlier work.
The conditions of series [11]: phase I dose-escalation study (Patnaik et al, ASH 2012); cited from earlier work.

Structures can show the parent of a compound that is named as a salt. A value given as a limit tells only on which side of the number the result lay.

Take `CC[C@H](Nc1ncnc2[nH]cnc12)c1nc2cccc(F)c2c(=O)n1-c1ccccc1` [GS-1101]: in [1] (any mutations downstream of BCR), the “decreased activity with respect to IC50 values” is on record as over 100 fold. Besides, the “anti-proliferative activity profile across DLBCL cell lines” value in series [1] is “active only in BCR-mutant cell lines without downstream mutations”. For the same compound, the “feedback activation of p-ERK” value in series [2] (HBL-1 cells) is reported as “Activation of p-ERK”. Also, the “PD (progression of disease) in DLBCL patients” value in series [3] is given as 9/9.
In the case of `COc1c(OCCCN2CCOCC2)ccc2c1N=C(NC(=O)c1cnc(N)nc1)N1CCN=C21` [COMPOUND A, 2-amino-N-[7-methoxy-8-(3-morpholin-4-ylpropoxy)-2,3-dihydroimidazo[1,2-c]quinazolin-5-yl]pyrimidine-5-carboxamide dihydrochloride], in [4], the “PR (partial response) in follicular NHL” value is on record as 6/6. Further, in [5], the tumor reduction is on record as 39%. Moreover, the half-life (commonly how long it takes for the measured level to halve) in [6] was about 60 min.
On to `O=C1Nc2nc(-c3c(O)cccc3OCC3CC3)cc([C@@H]3CCCNC3)c2CO1` [BAY Compound B], for which, in series [1], the “anti-proliferative activity profile across DLBCL cell lines” value is listed as “more active in ABC-DLBCL compared with GCB-DLBCL cell lines”. Also, the “feedback activation of p-IKKα/β” value in series [2] (both HBL-1 and OCI-Ly3 cells) is “Activation of p-IKKα/β”.
For the compound `C=CC(=O)N1CCC[C@@H](n2nc(-c3ccc(Oc4ccccc4)cc3)c3c(N)ncnc32)C1` [ibrutinib], the IC50 – broadly, the concentration that gives 50% inhibition – was under 30 nM in series [1] (BCR-mutant cell lines even in the presence of activating NFκB pathway) and over 1000 nM in series [1] (cell lines without BCR-activating mutations (or complete inactivity)). The “TGI (rel TA)” value in series [7] was 70%. For the same compound, the “feedback activation of p-ERK” value in [2] (both HBL-1 and OCI-Ly3 cells) is on record as “Activation of p-ERK”.
In the case of `COc1c(OCCCN2CCOCC2)ccc2c1N=C(NC(=O)c1cnc(N)nc1)N1CCN=C21` [COMPOUND OF FORMULA I, 2-amino-N-[7-methoxy-8-(3-morpholin-4-ylpropoxy)-2,3-dihydroimidazo[1,2-c]quinazolin-5-yl]pyrimidine-5-carboxamide], in series [8] (CLL (n = 9)), the “Best response CR/CRu, number of patients” value turned out to be 0; the “Best response PD, number of patients” value is listed as 1; the “Best response PR, number of patients” value is recorded as 4; the “Best response SD, number of patients” value came to 4. For the same compound, in series [8] (DLBCL (n = 17)), the “Best response CR/CRu, number of patients” value came out at 0; the “Best response PD, number of patients” value is reported as 8; the “Best response PR, number of patients” value is given as 2; the “Best response SD, number of patients” value was 7. For the same compound, in series [8] (FL (n = 9)), the “Best response CR/CRu, number of patients” value is on record as 2; the “Best response PD, number of patients” value was determined as 0; the “Best response PR, number of patients” value is reported as 2; the “Best response SD, number of patients” value is listed as 5. In [8] (FL), the “complete RR” value was found to be 22%. The “overall response rate (RR)” value in [8] (FL, 0.8 mg/kg days 1, 8, 15 of 28-day cycle) is 44%. In addition, in series [8] (MCL (n = 6)), the “Best response CR/CRu, number of patients” value came to 1; the “Best response PD, number of patients” value came to 1; the “Best response PR, number of patients” value was determined as 4; the “Best response SD, number of patients” value was 0. Moreover, in [8] (MCL), the “complete RR” value is 17% and the “overall response rate (RR)” value turned out to be 83%. Further, in series [8] (PTCL (n = 4)), the “Best response CR/CRu, number of patients” value amounted to 0; the “Best response PD, number of patients” value was found to be 2; the “Best response PR, number of patients” value is 2; the “Best response SD, number of patients” value is given as 0. Also, in [8] (PTCL), the “complete RR” value is 0% and the “overall response rate (RR)” value came out at 50%. Also, in series [8] (Transformed (n = 5)), the “Best response CR/CRu, number of patients” value worked out at 0; the “Best response PD, number of patients” value worked out at 2; the “Best response PR, number of patients” value came to 1; the “Best response SD, number of patients” value came to 2. In addition, in [8] (single agent, 1st line, 2nd line, relapsed, refractory lymphoma), the clinical activity entry was “clinically active as a single agent”. Further, the deaths entry in series [9] (1 progressive disease, 1 acute respiratory insufficiency, 1 Cryptococcal meningitis, 1 sepsis after salvage chemotherapy) is “Four”. Further, the toxicity profile entry in series [9] (1st line, 2nd line, relapsed, refractory lymphoma) is “acceptable toxicity profile”. For the same compound, the “cases of interstitial pneumonitis” value in series [9] (both resolved following corticosteroid administration) was “two”. Also, in series [9] (in vivo), the “Hyperglycemia of any grade” value is 47%, the “Withdrawal of study drug due to AEs” value came out at 10 patients, the colitis result is “No case of colitis was reported” and the “grade 4 hyperglycemia” value is “no grade 4 hyperglycemia was observed”. Besides, in [9] (in vivo), the “grade 4 hypertension” value was “no grade 4 hypertension was reported”, the “patients who required a dose reduction” value was 4 patients, the “patients who required antihypertensive treatment” value is recorded as “Eight” and the “patients who required insulin therapy” value was “Four”. In addition, the “Diarrhea of any grade” value in [9] (of cases) was determined as 25%. Moreover, in series [9] (of patients), the “Grade 3/4 AE diarrhea” value was determined as 5%, the “Grade 3/4 AE fatigue” value is reported as 5%, the “Grade 3/4 AE hyperglycemia” value turned out to be 13% and the “Grade 3/4 AE hypertension” value came out at 31%. Besides, in [9] (of patients), the “Grade 3/4 AE neutropenia” value is recorded as 16%, the “Grade 3 adverse events (AE)” value is on record as 49%, the “Hypertension of any grade” value was found to be 46% and the “Withdrawal of study drug due to AEs” value was found to be 16%. The “grade 4 AE (all neutropenia)” value in [9] (of patients) is recorded as 15%. For the same compound, the “PR in follicular lymphoma” value in [10] is given as 6/6. In addition, the maximum tolerated dose in [11] is on record as 0.8 mg/kg.
